Measured values taken from patent US20130165679A1, “ALPHA-GLUCOSIDASE INHIBITOR” (priority 2011, published 2013).
Values after ≈ are worked out from the molar mass of the structure shown. Read-outs that look alike come from different tables or passages of the source.

Test system: α-glucosidase
Assay type: biochemical
Settings: for IC50 (concentration to obtain 50% enzyme inhibitory activity): obtained by interpolation from inhibition rate data
Protocol: Examples of unsaturated fatty acid used to analyze its enzyme inhibitive activity as a α-glucosidase inhibitor include oleic acid (Ω9), linoleic acid (Ω6), and α-linolenic acid (Ω3).
In the analytical method, p-nitrophenyl-α-D-glucopyranoside was used as a substrate. The absorbance was measured by spectrophotometry to determine the α-glucosidase inhibition activity of samples (Apostolidis E. Lee C M. In vitro potential of Ascophyllum nodosam phenolic antioxidant-mediated alpha-glucosidase and alpha-amylase inhibition. Journal of Food Science 2010, 75:H97-102; Kang W Y, Song Y L, Zhang L. α-Glucosidase inhibitory and antioxidant properties and antidiabetic activity of Hypericum ascyron L. Medicinal Chemistry Research 2011.20:809-816).
To a 1.5 ml eppendorf tube containing 0.05 ml of sample solution (in 5% methanol), 0.1 ml of α-glucosidase solution (2 U/ml; in 100 mM phosphate buffer, pH 6.9) was added. The mixture was incubated in 37° C. water bath for 10 min, and then 0.05 ml of 5 mM p-nitrophenyl-α-D-glucopyranoside (in 100 mM phosphate buffer, pH 6.9) was added and mixed homogeneously. The mixture was incubated in 37° C. water bath for 10 min, and then in boiling water for 5 min to stop the reaction. After the addition of 1 ml of deionized water, the absorbance at 405 nm was measured by spectrophotometer (U-1800, Hitachi. Tokyo, Japan). • 1. Determining the α-glucosidase inhibition activity of oleic acid (as the α-glucosidase inhibitor): • A. Experimental group: enzyme+substrate+unsaturated fat acid (oleic acid) • B. Control: enzyme+substrate+buffer • C. Background: buffer+buffer+unsaturated fatty acid (oleic acid) • Calculation of the rate of inhibition:
Inhibition rate %=[ODControl−(ODExperimental group−ODBackground)]/ODControl×100%

Inhibition rate (%) (0.0125 mg/ml)	Inhibition rate (%) (0.0250 mg/ml)	Inhibition rate (%) (0.0500 mg/ml)	IC50 (concentration to obtain 50% enzyme inhibitory activity)	Inhibition rate (%) (0.01 mg/ml)	Inhibition rate (%) (0.02 mg/ml)	Inhibition rate (%) (0.04 mg/ml)	Inhibition rate (%) (0.06 mg/ml)	Structure (SMILES)
2.99 ± 0.36%	30.10 ± 0.54%	91.60 ± 0.62%	33 µg/mL (≈ 118 µM)	–	–	–	–	CCCCC/C=C\C/C=C\CCCCCCCC(=O)O [linoleic acid]
–	–	–	22 µg/mL (≈ 77.9 µM)	11.8 ± 0.99%	52.2 ± 0.55%	96.7 ± 0.06%	–	CCCCCCCC/C=C\CCCCCCCC(=O)O [oleic acid]
–	–	57.5 ± 2.39%	47 µg/mL (≈ 169 µM)	–	–	31.6 ± 1.80%	81.0 ± 0.13%	CC/C=C\C/C=C\C/C=C\CCCCCCCC(=O)O [α-linolenic acid]
